Assay results published in patent US20090220435A1, “TIGHT JUNCTION MODULATING PEPTIDE COMPONENTS FOR ENHANCING MUCOSAL DELIVERY OF THERAPEUTIC AGENTS” (priority 2005, published 2009).
Where two headings read alike, the source gives them in different places. Non-standard residues stand in square brackets, D forms with d. Residues, ends and D or L forms follow the SMILES beside them.

Legend:
[1] = system: EpiAirway™ human-derived tracheal/bronchial epithelial cells; assay: Transepithelial electrical resistance (TER) across EpiAirway epithelial cell layer; type: cell-based; settings: for TER(x)/TER(159) +/− SEM: ratio to PN159; for Relative TER Decrease: relative to PN159 = 1.0; for TER reduction (highest within the concentration range tested): EpiAirway epithelial cells
[2] = system: EpiAirway™ human-derived tracheal/bronchial epithelial cells; assay: Cytotoxicity (LDH assay); type: cell-based
Method: The amount of cell death was assayed by measuring the loss of lactate dehydrogenase (LDH) from the cells using a CytoTox 96 Cytoxicity Assay Kit (Promega Corp., Madison, Wis.). Fifty microliters of sample was loaded into a 96-well assay plates. Fresh, cell-free culture medium was used as a blank. 50 μl of substrate solution was added to each well and the plates incubated for 30 minutes at room temperature in the dark. Following incubation, 50 μl of stop solution was added to each well and the plates read on an optical density plate reader at 490 nm.
The amount of cell death will be assayed by measuring the loss of lactate dehydrogenase (LDH) from the cells using a CytoTox 96 Cytotoxicity Assay Kit (Promega Corp., Madison, Wis.). Fifty microliters of sample will be loaded into a 96-well assay plates. Fresh, cell-free culture medium will be used as a blank. Fifty microliters of substrate solution will be added to each well and the plates incubated for 30 minutes at room temperature in the dark. Following incubation, 50 μl of stop solution will be added to each well and the plates read on an optical density plate reader at 490 nm. The measurement of LDH release into the basolateral media indicates relative cytotoxicity of the samples. One hundred percent lysis of control inserts with 0.3% Octylphenolpoly(ethyleneglycolether)×(TritonX-100) allows LDH values to be expressed as percentage of total lysis.
In some embodiments, The amount of cell death was assayed by measuring the release of lactate dehydrogenase (LDH) from the cells into the apical medium using a CytoTox 96 Cytotoxicity Assay Kit (Promega Corp., Madison, Wis.). One percent Octylphenolpoly (ethyleneglycolether)×(Triton X-100™) diluted in phosphate buffered saline (PBS) causes 100% lysis in cultured cells and served herein as a positive control for the LDH assay. Following the one hour incubation period with a test formulation (refer to Table 24 of Example 25 for details of test formulations), the total liquid volume of each insert was brought to a final volume of 200 μl with culture medium. The apical medium was then mixed by pipetting four times with a multichannel pipette set to a 100 μl volume. After mixing, a 100 μl sample from the apical side of each insert was transferred to a new 96-well plate. The apical media samples were sealed with a plate sealer and stored at room temperature for same day analysis or stored overnight at 4° C. for analysis the next day. To measure LDH levels, 5 μl of the 100 μl apical media sample was diluted in 45 μl DPBS in a new 96-well plate. Fresh, cell-free culture medium will be used as a blank. Fifty microliters of substrate solution was added to each well and incubated for 30 minutes at room temperature away from direct light. Following the 30 minute incubation, 50 μl of stop solution was added to each well. Optical density (OD) was measured at 490 nm with a uQuant absorbance plate reader from Biotek Instruments. The measurement of LDH release into the apical media indicates relative cytotoxicity of the samples. Percent cytotoxicity for each test formulation was calculated by subtracting the measured absorbance of the PBS control (basal level of LDH release) from the measured absorbance of the individual test formulation and then dividing that value by the measured absorbance for the 1% Triton X-100™ positive control, multiplied by 100.
An LDH assay was used to assess the cytotoxicity of the treatments. The LDH level was determined by CytoTox96 Non-Radioactive Cytotoxic Assay (Promega, Madison, Wis.) following the manufacturer's protocol. For basal-lateral LDH levels, triplicates of 50 ul of the basal medium were used to determine the LDH level. For apical LDH level, 150 ul of the diluted apical sample was removed by adding 150 ul of Epi-CM to the apical chamber, the medium was mixed by pipeting up and down, and 150 ul medium was removed and diluted 2× (for a final 8-fold dilution) for assay in triplicates of 50 ul.

[3] = 15 minute treatment at the peptide's optimal concentration
[4] = 60 minute treatment at the peptide's optimal concentration

Compound | TER(x)/TER(159) +/− SEM [1] | Relative TER Decrease [1] | also measured
CC[C@H](C)[C@H](NC(=O)[C@H](CCCCN)NC(=O)[C@@H](NC(=O)[C@H](CCC(N)=O)NC(=O)[C@@H](N)CCCNC(=N)N)[C@@H](C)CC)C(=O)N[C@@H](Cc1c[nH]c2ccccc12)C(=O)N[C@@H](Cc1ccccc1)C(=O)N[C@@H](CCC(N)=O)C(=O)N[C@@H](CC(N)=O)C(=O)N[C@@H](CCCNC(=N)N)C(=O)N[C@@H](CCCNC(=N)N)C(=O)N[C@@H](CCSC)C(=O)N[C@@H](CCCCN)C(=O)N[C@@H](Cc1c[nH]c2ccccc12)C(=O)N[C@@H](CCCCN)C(=O)N[C@@H](CCCCN)C(N)=O [PN58] | – | – | TER reduction ([1]; 250 μM peptide): −6%; TER reduction ([1]; 500 μM peptide): 64%; TER reduction ([1]; 1000 μM peptide): 88%; LDH15 [2, 3]: 0.0007; LDH60 [2, 4]: 0.02
CC(C)C[C@@H](NC(=O)[C@H](N)CCCCN)C(=O)N[C@H](C)C(=O)N[C@H](CC(C)C)C(=O)N[C@H](CCCCN)C(=O)N[C@H](CC(C)C)C(=O)N[C@H](C)C(=O)N[C@H](CC(C)C)C(=O)N[C@H](CCCCN)C(=O)N[C@H](C)C(=O)N[C@H](CC(C)C)C(=O)N[C@H](CCCCN)C(=O)N[C@H](C)C(=O)N[C@H](C)C(=O)N[C@H](CC(C)C)C(=O)N[C@H](CCCCN)C(=O)N[C@H](CC(C)C)C(=O)N[C@H](C)C(N)=O [PN393, NH2-klalklalkalkaalkla-amide] | 1.06 +/− 0.00 | – | –
CC(C)C[C@H](NC(=O)[C@H](CC(C)C)NC(=O)[C@@H](CCCCN)NC(=O)[C@H](CC(C)C)NC(=O)[C@H](CC(C)C)NC(=O)[C@H](CCCCN)NC(=O)[C@@H](CCCCN)NC(=O)[C@@H](CC(C)C)NC(=O)[C@H](CC(C)C)NC(=O)[C@@H](CCCCN)NC(=O)[C@H](CCCCN)NC(=O)[C@H](CC(C)C)NC(=O)[C@@H](CC(C)C)NC(=O)[C@H](CCCCN)NC(=O)[C@@H](N)CC(C)C)C(N)=O [PN407, NH2-LKlLKkLlkKLLkLL-amide] (H-LK[dL]LK[dK]L[dL][dK]KLL[dK]LL-NH2) | 1.08 +/− 0.01 | 1.1 | –
CC(C)C[C@@H](NC(=O)[C@@H](C)N)C(=O)N[C@H](CCCCN)C(=O)N[C@H](CC(C)C)C(=O)N[C@H](C)C(=O)N[C@H](C)C(=O)N[C@H](CCCCN)C(=O)N[C@H](CC(C)C)C(=O)N[C@H](C)C(=O)N[C@H](CCCCN)C(=O)N[C@H](CC(C)C)C(=O)N[C@H](C)C(=O)N[C@H](CC(C)C)C(=O)N[C@H](CCCCN)C(=O)N[C@H](CC(C)C)C(=O)N[C@H](C)C(=O)N[C@H](CC(C)C)C(=O)N[C@H](CCCCN)C(N)=O [PN408, NH2-alklaaklaklalklalk-amide] | 1.05 +/− 0.01 | – | –
CC(C)C[C@H](NC(=O)[C@H](C)NC(=O)[C@H](CCCCN)NC(=O)[C@H](CC(C)C)NC(=O)[C@H](CC(N)=O)NC(=O)[C@H](CC(C)C)NC(=O)[C@H](CCCCN)NC(=O)[C@H](CC(C)C)NC(=O)[C@@H](CCCCN)NC(=O)[C@H](CC(C)C)NC(=O)[C@H](CCCCN)NC(=O)[C@H](CC(C)C)NC(=O)[C@H](C)NC(=O)[C@H](C)NC(=O)[C@H](CCCCN)NC(=O)[C@H](CC(C)C)NC(=O)[C@H](C)NC(=O)[C@H](CCCCN)NC(=O)[C@H](CC(C)C)NC(=O)[C@H](C)NC(=O)[C@H](CCCCN)NC(=O)[C@H](CC(C)C)NC(=O)[C@H](C)NC(=O)[C@H](CC(C)C)NC(=O)[C@@H](N)CCCCN)C(N)=O [PN422] (H-KLALKALKALKAALKL[dK]LKLNLKAL-NH2) | 0.47 +/− 0.07 | – | –
H-AAVALLPAVLLALLAPRKKRRQRRRPPQ-NH2 [PN27] | – | – | TER reduction ([1]; 125 μM peptide): 81%; TER reduction ([1]; 250 μM peptide): 91%; TER reduction ([1]; 500 μM peptide): 94%; LDH15 [2, 3]: 0.0056; LDH60 [2, 4]: 0.035
H-KALAALLKKAAKLLAALK-NH2 [PN442] | 0.93 +/− 0.03 | – | –
H-KALAALLKKLAKLLAALK-NH2 [PN444] | 0.82 +/− 0.05 | – | –
H-KALKLKAALALLAKLKLA-NH2 [PN424] | 0.59 +/− 0.07 | – | –
H-KETWWETWWTEWSQPGRKKRRQRRRRPPQ-NH2 [PN183] | – | – | TER reduction ([1]; 100 μM peptide): 25%; TER reduction ([1]; 500 μM peptide): 41%; TER reduction ([1]; 1000 μM peptide): 55%; TER reduction (highest within the concentration range tested) [1]: 55%
H-KLAAALLKKAKKLAAALL-NH2 [PN441] | 0.54 +/− 0.04 | – | –
H-KLALKLALKALKAALK-NH2 [PN418] | 1.05 +/− 0.05 | – | –
H-KLALKLALKALKAALKLALK-NH2 [PN419] | 1.23 +/− 0.01 | – | –
H-KLALKLALKALKAALKLALKLA-NH2 [PN420] | 0.77 +/− 0.05 | – | –
H-KLALKLALKALKAALKLALKLALK-NH2 [PN421] | 0.74 +/− 0.11 | – | –
H-KLALKLALKNLKAALKLA-NH2 [PN448] | – | 0.4 | –
H-KLAWKLALKALKAALKLA-NH2 [PN0425] | – | 1.0 | –
H-KLAWKLALKALKAAWKLA-NH2 [PN0427] | – | 1.0 | –
H-KLAWKLAWKALKAAWKLA-NH2 [PN0428] | – | 0.7 | –
H-KLWSAWPSLWSSLWKP-NH2 [PN228] | – | – | TER reduction ([1]; 100 μM peptide): 9%; TER reduction ([1]; 500 μM peptide): 82%; LDH15 [2]: 0.0063; LDH60 [2]: 0.046
H-LKLLKKLLKKLLKLL-NH2 [PN406] | – | 0.9 | –
H-LKTLATALTKLAKTLTTL-NH2 [PN443] | – | 0.3 | –
H-RKKRRQRRRPPQCAAVALLPAVLLALLAP-NH2 [PN28] | – | – | TER reduction (highest within the concentration range tested) [1]: functionally equivalent to PN27
H-RLAWRLALRALRAALRLA-NH2 [PN395] | – | 0.8 | –
Octylphenolpoly (ethyleneglycolether)×(Triton X-100™) [Triton X-100 ™, reference compound] | – | – | % Triton-X LDH Release ([2]; 1% Triton X-100, positive control): 100%
